Assay results taken from patent EP2769722A1 (Ruprecht-Karls-Universität Heidelberg, priority 2013, dated 2014).
Structures can show the parent of a compound that is named as a salt.

These molecules were tested against T1, CA (Human immunodeficiency virus type 1 group M subtype B, UniProt P12493) (assay: AlphaScreen: inhibition of CAI-biotin peptide binding to CA-GST). Conditions: inhibition of CAI binding to CA (CA-GST fusion); compounds screened at 0.5-100 µM; read-out: α screen IC50.
T1 construct: a fusion protein of CA with glutathione-S-transferase (CA-GST)
Design: species or system HIV-1
Procedure: The AlphaScreen experiments are performed using Perkin Elmer Enspire plate reader in white 96-well ProxiPlates and PBS supplemented with 0.05% Tween20, 2mM DTT, 2% DMSO. First, Streptavidin-coated Donor beads are used to capture the CAI-biotin peptide. In the other solution, a fusion protein of CA with glutathione-S-transferase (CA-GST) is mixed with GSH Acceptor beads. Both mixtures were incubated and then mixed together. To test the ability of prepared organic compounds to inhibit the CAI binding to CA, they are screened at concentrations between 0.5-100 µM and IC50 values are calculated from the influenced signals.
Upon illumination by laser at 680 nm, Donor beads containing the photosensitizer phthalocyanine convert ambient oxygen to an excited form of singlet oxygen ^1O2. Singlet oxygen can within its half-life of ∼ 4µs diffuse approximately 200 nm in solution. If an Acceptor bead is within that proximity, which is mostly upon CA:CAI interaction, energy is transferred from the singlet oxygen to thioxene derivates within the Acceptor and signal at 520 - 620 nm is emitted. […] Table 4: Synthesized and tested compounds

`Fc1ccc(Nc2ccnc(-c3cncc(Br)c3)n2)cc1F` [KP-355, 2-(5-Bromopyridin-3-yl)-N-(3,4-difluorophenyl)pyrimidin-4-amine hydrochloride] and `Fc1cc(Nc2ccnc(-c3cncc(Br)c3)n2)cc(F)c1F` [KP-359, 2-(5-Bromopyridin-3-yl)-N-(3,4,5-trifluorophenyl)pyrimidin-4-amine hydrochloride] cannot be ordered by IC50: greater than 100 µM for the first, greater than 100 µM for the second.

Compared with `Fc1ccc(Nc2ccnc(-c3ccncc3)n2)cc1F` [KP-360, N-(3,4-difluorophenyl)-2-(pyridin-4-yl)pyrimidin-4-amine dihydrochloride], `CCOC(=O)c1ccc(Nc2ccnc(-c3cccnc3)n2)cc1Cl` [hydrochloride] is 2.6-fold lower in IC50: 81 µM for the first, 31 µM for the second. The second is the more potent here.

Going from `CCOC(=O)c1ccccc1Nc1ccnc(-c2cncc(Br)c2)n1` [KP-363, Ethyl 2-{[2-(5-bromopyridin-3-yl)pyrimidin-4-yl]amino}benzoate hydrochloride] to `Cn1nnc2cc(Nc3ccnc(-c4cncc(Br)c4)n3)ccc21` [KP-364, N-[2-(5-bromopyridin-3-yl)pyrimidin-4-yl]-1-methyl-1H-benzotriazol-5-amine dihydrochloride], the IC50 falls from 58 µM to 14 µM (4.1-fold).

`CCOC(=O)c1ccc(Nc2cc(-c3cccnc3Cl)ncn2)cc1` [KP-369, Ethyl 4-{[6-(2-chloropyridin-3-yl)pyrimidin-4-yl]amino}benzoate hydrochloride] and `Fc1ccc(Nc2cc(-c3cccnc3Cl)ncn2)cc1F` [KP-374, 6-(2-Chloropyridin-3-yl)-N-(3,4-difluorophenyl)pyrimidin-4-amine hydrochloride] cannot be ordered by IC50: greater than 100 µM for the first, greater than 100 µM for the second.

`Fc1cc(Nc2cc(-c3cccnc3Cl)ncn2)cc(F)c1F` [KP-373, 6-(2-Chloropyridin-3-yl)-N-(3,4,5-trifluorophenyl)pyrimidin-4-amine hydrochloride] and `COc1cc(Nc2cc(-c3cccnc3Cl)ncn2)cc(OC)c1OC` [KP-377, 6-(2-Chloropyridin-3-yl)-N-(3,4,5-trimethoxyphenyl)pyrimidin-4-amine hydrochloride] cannot be ordered by IC50: greater than 100 µM for the first, greater than 100 µM for the second.

`Cn1nnc2cc(Nc3cc(-c4cccnc4Cl)ncn3)ccc21` [KP-375, N-[6-(2-Chloropyridin-3-yl)pyrimidin-4-yl]-1-methyl-1H-benzotriazol-5-amine hemihydrochloride] and `Cc1ccc(NC(=O)c2cccc(C(F)(F)F)c2)cc1Nc1cc(-c2cccnc2Cl)ncn1` [KP-380, N-(3-(6-(2-chloropyridin-3-yl)pyrimidin-4-ylamino)-4-methylphenyl)-3-(trifluoromethyl)benzamide hydrochloride] cannot be ordered by IC50: greater than 100 µM for the first, greater than 100 µM for the second.

`Cc1ccc(NC(=O)c2cccc(C(F)(F)F)c2)cc1Nc1ccnc(-c2cncc(Br)c2)n1` [KP-384, N-(3-(2-(5-bromopyridin-3-yl)pyrimidin-4-ylamino-4-methylphenyl)-3-(trifluoromethyl)benzamide hydrochloride] and `Cc1ccc(NC(=O)c2cccc(C(F)(F)F)c2)cc1Nc1ccnc(-c2cccnc2)n1` [KP-385, N-(3-(2-(pyridin-3-yl)pyritnidin-4-ylamino)-4-methylphenyl)-3-(trifluoromethyl)benzamide hydrochloride] cannot be ordered by IC50: greater than 100 µM for the first, greater than 100 µM for the second.
